{
  "source": "patent US20060128695A1",
  "about": "“Cyclic nucleotide phosphodiesterase inhibitors, preparation and uses” (NEURO3D, priority 2002, published 2006)",
  "data": [
    {"target": "T1, PDE2 (Bos taurus, UniProt P14099)", "T1 construct": "PDE2 was prepared from bovine endothelial cells by the same methods; endogenous in cells; host or cells: bovine endothelial cells", "T1 sequence (P14099 1-921)": "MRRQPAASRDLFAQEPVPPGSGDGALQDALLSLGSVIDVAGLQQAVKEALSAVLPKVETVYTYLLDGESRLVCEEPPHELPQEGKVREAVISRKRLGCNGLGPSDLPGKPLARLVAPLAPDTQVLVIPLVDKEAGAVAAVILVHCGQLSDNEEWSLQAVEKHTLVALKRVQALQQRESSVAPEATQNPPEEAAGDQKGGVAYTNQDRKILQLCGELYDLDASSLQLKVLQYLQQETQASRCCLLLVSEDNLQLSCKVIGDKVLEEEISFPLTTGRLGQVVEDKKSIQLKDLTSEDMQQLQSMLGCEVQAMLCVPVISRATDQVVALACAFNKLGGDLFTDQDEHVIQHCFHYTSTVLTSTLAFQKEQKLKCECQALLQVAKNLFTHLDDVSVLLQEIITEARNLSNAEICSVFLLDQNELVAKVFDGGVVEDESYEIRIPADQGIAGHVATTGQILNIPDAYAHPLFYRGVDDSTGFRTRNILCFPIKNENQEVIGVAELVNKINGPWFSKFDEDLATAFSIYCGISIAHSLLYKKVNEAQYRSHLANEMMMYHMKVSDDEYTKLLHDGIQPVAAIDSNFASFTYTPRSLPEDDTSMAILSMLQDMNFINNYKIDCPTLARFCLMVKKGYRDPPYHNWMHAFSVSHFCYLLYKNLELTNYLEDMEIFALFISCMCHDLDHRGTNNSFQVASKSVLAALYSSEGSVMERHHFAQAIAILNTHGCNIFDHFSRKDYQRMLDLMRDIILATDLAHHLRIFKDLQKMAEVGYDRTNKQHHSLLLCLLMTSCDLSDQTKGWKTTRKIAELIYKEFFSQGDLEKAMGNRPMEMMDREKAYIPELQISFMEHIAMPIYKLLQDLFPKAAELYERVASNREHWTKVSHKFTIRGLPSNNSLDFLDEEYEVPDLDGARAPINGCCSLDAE", "test": "Inhibition of PDE2, radioenzymatic phosphodiesterase assay", "type": "biochemical, bovine", "conditions": "not given", "units": {"IC50": "µM"}, "values": [
      {"molecule": "CCOC(=O)CN1C(=O)CN=C(c2cccc(C#N)c2)c2cc(OC)c(OC)cc21", "note": "[Compound 4n, Ethyl[5-(3-cyanophenyl)-7,8-dimethoxy-2-oxo-2,3-dihydro-1H-1,4-benzodiazepin-1-yl]acetate]", "IC50": 3.7},
      {"molecule": "COc1cc2c(cc1OC)N(Cc1ccccc1)C(=O)CN=C2c1cccc(C#N)c1", "note": "[Compound 4m, 3-(1-benzyl-7,8-dimethoxy-2-oxo-2,3-dihydro-1H-1,4-benzodiazepin-5-yl)benzonitrile]", "IC50": 1.5},
      {"molecule": "COc1cc2c(cc1OC)C(c1cccc(C(N)=O)c1)=NCC(=O)N2", "note": "[Compound 5e, 3-(7,8-dimethoxy-2-oxo-2,3-dihydro-1H-1,4-benzodiazepin-5-yl)benzamide]", "IC50": 6.6},
      {"molecule": "COc1cc2c(cc1OC)N(C)C(=O)CN=C2c1cccc(C)c1", "note": "[Compound 17k, 7,8-dimethoxy-1-methyl-5-(3-methylphenyl)-1,3-dihydro-1,4-benzodiazepin-2-one]", "IC50": 3.7},
      {"molecule": "COc1cc2c(cc1OC)N(C)C(=O)CN=C2c1cncc2ccccc12", "note": "[Compound 17f, 5-(4-isoquinolinyl)-7,8-dimethoxy-1-methyl-1,3-dihydro-1,4-benzodiazepin-2-one]", "IC50": 4.7},
      {"molecule": "COc1cc2c(cc1OC)N(C)C(=O)CN=C2c1cccc([N+](=O)[O-])c1", "note": "[Compound 17c, 7,8-dimethoxy-1-methyl-5-(3-nitrophenyl)-1,3-dihydro-1,4-benzodiazepin-2-one]", "IC50": 6.1},
      {"molecule": "COc1ccc2c(c1)N(C)C(=O)CN=C2c1cccc(C#N)c1", "note": "[Compound 29a, 3-(8-methoxy-1-methyl-2-oxo-2,3-dihydro-1H-1,4-benzodiazepin-5-yl)benzonitrile]", "IC50": 35},
      {"molecule": "COc1cc2c(cc1OC)N(C)C(=O)CN=C2c1cccc(C(=O)NCc2ccccc2)c1", "note": "[Compound 36b, N-benzyl-3-(7,8-dimethoxy-1-methyl-2-oxo-2,3-dihydro-1H-1,4-benzodiazepin-5-yl) benzamide]", "IC50": 3.1},
      {"molecule": "COc1ccc2c(c1)NC(=O)CN=C2c1cccc(C#N)c1", "note": "[Compound 28a, 3-(8-methoxy-2-oxo-2,3-dihydro-1H-1,4-benzodiazepin-5-yl)benzonitrile]", "IC50": 65}
    ]},
    {"target": "T1, PDE2", "test": "Inhibition of PDE2, radioenzymatic phosphodiesterase assay", "type": "biochemical, bovine", "conditions": "1 μM cyclic AMP; PDE2 from bovine endothelial cells; read-out: PDE2 IC50", "units": {"IC50": "µM"}, "values": [
      {"molecule": "tert-butyl-3-[5-(cyanophenyl)-(7,8-dimethoxy-1-methyl-2-oxo-2,3-dihydro-1H-1,4-benzodiazepin-6-yl)phenyl]prop-2-ynylcarbamate [Compound 25e]", "IC50": 5}
    ]},
    {"target": "T1, PDE2", "test": "Inhibition of PDE2, radioenzymatic phosphodiesterase assay", "type": "biochemical, bovine", "conditions": "10 μM test compound; PDE2 from bovine endothelial cells", "units": {"PDE2 percentage inhibition at 10 μM": "%"}, "values": [
      {"molecule": "COc1cc2c(cc1OC)N(C)C(=O)CN=C2c1cccc(C(=O)N2CCN(Cc3ccccc3)CC2)c1", "note": "[Compound 36e, 5-{3-[(4-benzylpyperazin-1-yl)carbonyl]phenyl}7,8-dimethoxy-1-methyl-2-oxo-2,3-dihydro-1H-1,4-benzodiazepin-2-one]", "PDE2 percentage inhibition at 10 μM": 27},
      {"molecule": "CNC1=Nc2cc(OC)c(OC)cc2C(c2cccc(C#N)c2)=NC1", "note": "[Compound 12a, 3-(7,8-dimethoxy-2-methylamino-1,3-dihydro-3H-1,4-benzodiazepin-5-yl)benzonitrile]", "PDE2 percentage inhibition at 10 μM": 16},
      {"molecule": "[6-(3-aminoethynyl)-7,8-dimethoxy-1-methyl-2-oxo-2,3-dihydro-1H-1,4-benzodiazepin-5-yl]benzonitrile [Compound 25g]", "PDE2 percentage inhibition at 10 μM": 14.5},
      {"molecule": "COc1cc2c(cc1OC)C(c1cccc(C(F)(F)F)c1)=NCC(=O)N2", "note": "[Compound 3d, 7,8-dimethoxy-[5-(3-trifluoromethyl)phenyl]-1,3-dihydro-2H-1,4-benzodiazepin-2-one]", "PDE2 percentage inhibition at 10 μM": 22},
      {"molecule": "Methyl (2E)-3-[5-(cyanophenyl)-7,8-dimethoxy-1-methyl-2-oxo-2,3-dihydro-1H-1,4-benzodiazepin-9-yl)phenyl]acrylate [Compound 25d]", "PDE2 percentage inhibition at 10 μM": 2.4},
      {"molecule": "COc1ccc(CN2C(=O)CN=C(c3cccc(C#N)c3)c3cc(OC)c(OC)cc32)cc1", "note": "[Compound 4e, 3-[7,8-dimethoxy-l-(4-methoxybenzyl)-2-oxo-2,3-dihydro-1H-1,4-benzodiazepin-5-yl]-benzonitrile]", "PDE2 percentage inhibition at 10 μM": 13.9}
    ]},
    {"target": "T1, PDE2", "test": "Inhibition of PDE2, radioenzymatic phosphodiesterase assay", "type": "biochemical, bovine", "conditions": "10 μM test compound; PDE2 from bovine endothelial cells; read-out: PDE2 percentage inhibition at 10 μM", "units": {"inhibition at 10 µM": "%"}, "values": [
      {"molecule": "COc1cc2c(cc1OC)N(C)C(=O)CN=C2c1cccc(C(=O)N(C)C)c1", "note": "[Compound 36d, 3-(7,8-dimethoxy-1-methyl-2-oxo-2,3-dihydro-1H-1,4-benzodiazepin-5-yl)-N,N-dimethylbenzamide]", "inhibition at 10 µM": 17},
      {"molecule": "COc1cc2c(cc1OC)N(C)C(=O)CN=C2c1cccc(C(N)=S)c1", "note": "[Compound 9a, 3-(7,8-dimethoxy-1-methyl-2-oxo-2,3-dihydro-1H-1,4-benzodiazepin-5-yl)thiobenzamide]", "inhibition at 10 µM": 85}
    ]},
    {"target": "T1, PDE2", "test": "Inhibition of PDE2, radioenzymatic phosphodiesterase assay", "type": "biochemical, bovine", "conditions": "read-out: PDE2 percentage inhibition at 10 μM", "units": {"inhibition at 10 µM": "%"}, "values": [
      {"molecule": "COc1cc2c(cc1OC)N(C)C(=O)CN=C2c1cccc(C(=O)NCCCCCC(N)=O)c1", "note": "[Compound 36c, N-(6-amino-6-oxohexyl)-3-(7,8-dimethoxy-1-methyl-2-oxo-2,3-dihydro-1H-1,4-benzodiazepin-5-yl)benzamide]", "inhibition at 10 µM": 46},
      {"molecule": "COc1cc2c(cc1O)C(c1cccc(C#N)c1)=NCC(=O)N2", "note": "[Compound 22b, 3-(7-hydroxy-8-methoxy-2-oxo-2,3-dihydro-1H-1,4-benzodiazepin-5-yl)benzonitrile]", "inhibition at 10 µM": 3.8},
      {"molecule": "COc1cc2c(cc1OC)N(C)C(=O)CN=C2c1cccc(N)c1", "note": "[Compound 17i, 5-(3-aminophenyl)-7,8-dimethoxy-1-methyl-1,3-dihydro-2H-1,4-benzodiazepin-2-one]", "inhibition at 10 µM": 40},
      {"molecule": "COc1cc2c(cc1OC)N(C)C(=O)CN=C2c1cccc(-c2cccc(C#N)c2)c1", "note": "[Compound 6l, 3′-(7,8-dimethoxy-1-methyl-2-oxo-2,3-dihydro-1H-1,4-benzodiazepin-5-yl)-1,1′-biphenyl-3-carbonitrile]", "inhibition at 10 µM": 77.5},
      {"molecule": "COc1cc2c(cc1OC)N(C)C(=O)CN=C2c1cccc(-c2nc(-c3ccccc3)cs2)c1", "note": "[Compound 9b, 7,8-dimethoxy-1-methyl-5-[3-(4-phenyl-1,3-thiazol-2-yl)phenyl]-1,3-dihydro-2H-1,4-benzodiazepin-2-one]", "inhibition at 10 µM": 91.4},
      {"molecule": "COc1cc2c(c(Br)c1OC)NC(=O)CN=C2c1ccccc1", "note": "[Compound 28f, 9-bromo-7,8-dimethoxy-5-phenyl-1,3-dihydro-2H-1,4-benzodiazepin-2-one]", "inhibition at 10 µM": 13.5},
      {"molecule": "COc1cc2c(cc1OC)N(C)C(=O)C(C)N=C2c1cccc(C(F)(F)F)c1", "note": "(stereo not shown) [Compound 7c, 7,8-dimethoxy-1,3-dimethyl-5-(3-trifluoromethylphenyl)-1,3-dihydro-2H-1,4-benzodiazepin-2-one]", "inhibition at 10 µM": 41},
      {"molecule": "COc1cc2c(cc1OC)C(c1cccc(C#N)c1)=NCC(=S)N2", "note": "[Compound 10d, 5-(3-cyanophenyl)-7,8-dimethoxy-1,3-dihydro-2H-1,4-benzodiazepin-2-thione]", "inhibition at 10 µM": 5.5},
      {"molecule": "COc1cc2c(c(Br)c1O)C(c1cccc(C#N)c1)=NCC(=O)N2", "note": "[Compound 23b, 3-(6-bromo-7-hydroxy-8-methoxy-2-oxo-2,3-dihydro-1H-1,4-benzodiazepin-5-yl)benzonitrile]", "inhibition at 10 µM": 20.1},
      {"molecule": "CCCN1C(=O)CN=C(c2cccc(C(F)(F)F)c2)c2cc(OC)c(OC)cc21", "note": "[Compound 4r, 5-[3-(trifluoromethyl)phenyl]-7,8-dimethoxy-1-n-propyl-1,3-dihydro-1,4-benzodiazepin-2-one]", "inhibition at 10 µM": 34},
      {"molecule": "COc1ccc2c(c1)NC(=O)CN=C2c1cccc(C#N)c1", "note": "[Compound 28a, 3-(8-methoxy-2-oxo-2,3-dihydro-1H-1,4-benzodiazepin-5-yl)benzonitrile]", "inhibition at 10 µM": 52.5},
      {"molecule": "COc1cc2c(c(-c3ccccc3)c1OC)C(c1cccc(C(N)=O)c1)=NCC(=O)N2C", "note": "[Compound 5c, 3-(7,8-dimethoxy-1-methyl-2-oxo-6-phenyl-2,3-dihydro-1H-1,4-benzodiazepin-5-yl)benzamide]", "inhibition at 10 µM": 53.3},
      {"molecule": "CCCC1N=C(c2cccc(CO)c2)c2cc(OC)c(OC)cc2N(C)C1=O", "note": "(stereo not shown) [Compound 17h, 7,8-dimethoxy-5-(3-hydroxymethylphenyl)-1-methyl-3-propyl-1,3-dihydro-2H-1,4-benzodiazepin-2-one]", "inhibition at 10 µM": 9.2},
      {"molecule": "COc1cc2c(cc1OC)N(C)C(=O)C(Cc1ccc(Cl)c(Cl)c1)N=C2c1cccc(C(N)=O)c1", "note": "(stereo not shown) [Compound 5k, 3-[3-(3,4-dichlorobenzyl)-7,8-dimethoxy-1-methyl-2-oxo-2,3-dihydro-1H-1,4-benzodiazepin-5-yl]benzamide]", "inhibition at 10 µM": 67.8},
      {"molecule": "COc1ccc2c(c1)C(c1cccc(C#N)c1)=NCC(=O)N2", "note": "[Compound 28c, 3-(7-methoxy-2-oxo-2,3-dihydro-1H-1,4-benzodiazepin-5-yl)benzonitrile]", "inhibition at 10 µM": 46.5},
      {"molecule": "COc1cc2c(cc1OC)N(Cc1ccccc1)C(=O)CN=C2c1cccc(C(F)(F)F)c1", "note": "[Compound 4s, 1-benzyl-5-[3-(trifluoromethyl)phenyl]-7,8-dimethoxy-1,3-dihydro-1,4-benzodiazepin-2-one]", "inhibition at 10 µM": 14}
    ]}
  ]
}
